Experimental data taken from PubChem BioAssay AID330 (DTP/NCI, 2004).
Inconclusive results and toxic doses are left out. The calls were made as follows: active = survival T/C of 150% or more; inactive = T/C below 125% in these data.

System: P388 leukemia ip, CD2F1 mice, survival T/C
Test: NCI In Vivo Anticancer Drug Screen. Data for tumor model P388 Leukemia (intraperitoneal) in CD2F1 (CDF1) mice
Details: endpoint: median survival time, higher = longer survival
In short: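 Mice carrying the transplanted tumor received test compound or vehicle. Survival was recorded in each group, and the value is the treated-group measurement divided by that of the vehicle-treated control group.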

[1] = dose: 50.0 mg/kg/injection, schedule: Q01DX009 (ip), vehicle: Klucel (hydroxypropylcellulose) (HPC)
[2] = dose: 100.0 mg/kg/injection, schedule: Q01DX009 (ip), vehicle: Klucel (hydroxypropylcellulose) (HPC)
[3] = dose: 200.0 mg/kg/injection, schedule: Q01DX009 (ip), vehicle: Klucel (hydroxypropylcellulose) (HPC)
[4] = dose: 50.0 mg/kg/injection, schedule: Q01DX005 (ip), vehicle: Klucel (hydroxypropylcellulose) (HPC)
[5] = dose: 100.0 mg/kg/injection, schedule: Q01DX005 (ip), vehicle: Klucel (hydroxypropylcellulose) (HPC)
[6] = dose: 200.0 mg/kg/injection, schedule: Q01DX005 (ip), vehicle: Klucel (hydroxypropylcellulose) (HPC)
[7] = dose: 50.0 mg/kg/injection, schedule: Q01DX009 (ip), vehicle: saline
[8] = dose: 100.0 mg/kg/injection, schedule: Q01DX009 (ip), vehicle: saline
[9] = dose: 200.0 mg/kg/injection, schedule: Q01DX009 (ip), vehicle: saline
[10] = dose: 50.0 mg/kg/injection, schedule: Q01DX005 (ip), vehicle: saline with Tween-80
[11] = dose: 100.0 mg/kg/injection, schedule: Q01DX005 (ip), vehicle: saline with Tween-80
[12] = dose: 200.0 mg/kg/injection, schedule: Q01DX005 (ip), vehicle: saline with Tween-80

Measured: T/C

CCCCCCCC(=S)SCCCC(=O)O
inactive: [1] 100 % of control | [2] 100 % of control | [3] 99 % of control

CC(=O)OCC(=O)[C@@]1(O)CC[C@H]2[C@@H]3CCC4=CC(=O)C=C[C@]4(C)[C@H]3C(=O)C[C@@]21C
inactive: dose: 25.0 mg/kg/injection, schedule: Q04DX003 (ip), vehicle: saline with Tween-80 95 % of control | dose: 50.0 mg/kg/injection, schedule: Q04DX003 (ip), vehicle: saline with Tween-80 104 % of control | dose: 100.0 mg/kg/injection, schedule: Q04DX003 (ip), vehicle: saline with Tween-80 95 % of control

CCCN(CCC)c1ccc(C(=O)Oc2c(C)cccc2OC)cc1
inactive: [4] 93 % of control | [5] 102 % of control | [6] 90 % of control

CCCCCCCCCCCCCCN1CCS(=O)(=O)CC1
inactive: [1] 89 % of control | [2] 91 % of control | [3] 90 % of control

Nc1nc(N)n2c(N)nnc2n1
inactive: [7] 105 % of control | [8] 107 % of control | [9] 102 % of control

C=C1CCN(c2ccc([N+](=O)[O-])cc2)C1=O
inactive: dose: 4.0 mg/kg/injection, schedule: Q01DX009 (ip), vehicle: saline + alcohol 94 % of control | dose: 8.0 mg/kg/injection, schedule: Q01DX009 (ip), vehicle: saline + alcohol 101 % of control | dose: 16.0 mg/kg/injection, schedule: Q01DX009 (ip), vehicle: saline + alcohol 102 % of control | dose: 32.0 mg/kg/injection, schedule: Q01DX009 (ip), vehicle: saline + alcohol 96 % of control | dose: 64.0 mg/kg/injection, schedule: Q01DX009 (ip), vehicle: saline + alcohol 88 % of control

CN1C(c2ccccc2)=NN=C(C(F)(F)F)N1C
inactive: dose: 100.0 mg/kg/injection, schedule: Q01DX001 (ip), vehicle: distilled water + Tween-80 + alcohol 98 % of control | dose: 200.0 mg/kg/injection, schedule: Q01DX001 (ip), vehicle: distilled water + Tween-80 + alcohol 101 % of control | dose: 400.0 mg/kg/injection, schedule: Q01DX001 (ip), vehicle: distilled water + Tween-80 + alcohol 106 % of control

O=C1C(n2ccc(=O)[nH]c2=O)CCN1CCCl (stereo unspecified)
inactive: [5] 108 % of control | [6] 108 % of control

CCCCn1cnc(C(=O)OC)c1O (tested in a mixture with another compound)
inactive: dose: 100.0 mg/kg/injection, schedule: Q04DX002 (ip), vehicle: water 103 % of control | dose: 200.0 mg/kg/injection, schedule: Q04DX002 (ip), vehicle: water 101 % of control | dose: 400.0 mg/kg/injection, schedule: Q04DX002 (ip), vehicle: water 108 % of control

COC12C=CC(=O)N1CCC2 (stereo unspecified)
inactive: dose: 7.5 mg/kg/injection, schedule: Q01DX005 (ip), vehicle: DMSO 90 % of control | dose: 15.0 mg/kg/injection, schedule: Q01DX005 (ip), vehicle: DMSO 101 % of control | dose: 30.0 mg/kg/injection, schedule: Q01DX005 (ip), vehicle: DMSO 101 % of control

CC(NC(=O)c1ccc(Cl)cc1Cl)c1ccccc1 (stereo unspecified)
inactive: dose: 50.0 mg/kg/injection, schedule: Q01DX001 (ip), vehicle: other 98 % of control | dose: 100.0 mg/kg/injection, schedule: Q01DX001 (ip), vehicle: other 97 % of control | dose: 200.0 mg/kg/injection, schedule: Q01DX001 (ip), vehicle: other 96 % of control | dose: 400.0 mg/kg/injection, schedule: Q01DX001 (ip), vehicle: other 94 % of control

CCOP1(=S)NNP(=S)(OCC)NN1 (stereo unspecified)
inactive: [4] 96 % of control | [5] 93 % of control | [6] 104 % of control

Cc1cc(S(=O)(=O)[O-])ccc1-n1nc(C)[c-](N=Nc2cc(S(=O)(=O)[O-])ccc2C(=O)[O-])c1=O.[Cr+3].[Na+].[OH-] (stereo unspecified)
inactive: [7] 104 % of control | [8] 104 % of control | [9] 108 % of control

COC(=O)c1c(-c2ccc3c(c2)OCO3)cn(C)c1C
inactive: [10] 97 % of control | [11] 91 % of control | [12] 87 % of control

Cc1nnc2c([Se])nccn12
inactive: dose: 100.0 mg/kg/injection, schedule: Q01DX001 (ip), vehicle: saline with Tween-80 99 % of control | dose: 200.0 mg/kg/injection, schedule: Q01DX001 (ip), vehicle: saline with Tween-80 93 % of control

COc1c(Cl)cccc1N=Cc1ccc(C=Nc2cccc(Cl)c2OC)cc1
inactive: [7] 97 % of control | [8] 90 % of control | [9] 89 % of control

[NH-]C(CO)C(O)c1ccccc1.[NH-]C(CO)C(O)c1ccccc1.[NH-]C(CO)C(O)c1ccccc1.[Pr+3] (stereo unspecified)
inactive: [4] 103 % of control | [5] 97 % of control | [6] 99 % of control

COc1ccc(/C=N/NC(=O)C(=O)Nc2ccc(Cl)c([N+](=O)[O-])c2)cc1OC
inactive: [10] 93 % of control | [11] 92 % of control | [12] 103 % of control

C/C(=N\N/C(N)=N/S(=O)(=O)c1ccc(C)cc1)c1ccc(C)cc1
inactive: dose: 50.0 mg/kg/injection, schedule: Q04DX002 (ip), vehicle: saline with Tween-80 100 % of control | dose: 100.0 mg/kg/injection, schedule: Q04DX002 (ip), vehicle: saline with Tween-80 97 % of control | dose: 200.0 mg/kg/injection, schedule: Q04DX002 (ip), vehicle: saline with Tween-80 98 % of control

O=NN(CC(=O)OCc1ccccc1)NC(=O)OCc1ccccc1
inactive: dose: 12.5 mg/kg/injection, schedule: Q01DX009 (ip), vehicle: other 96 % of control | dose: 25.0 mg/kg/injection, schedule: Q01DX009 (ip), vehicle: other 97 % of control | dose: 50.0 mg/kg/injection, schedule: Q01DX009 (ip), vehicle: other 94 % of control | dose: 100.0 mg/kg/injection, schedule: Q01DX009 (ip), vehicle: other 96 % of control | dose: 200.0 mg/kg/injection, schedule: Q01DX009 (ip), vehicle: other 96 % of control

O=S(=O)(C1=NOC(c2ccccc2)C1)c1ccccc1 (stereo unspecified)
inactive: [4] 99 % of control | [5] 95 % of control | [6] 93 % of control
